Results as given in PMC10447463, “Data-mining unveils structure–property–activity correlation of viral infectivity enhancing self-assembling peptides” (Nature Communications, 2023).

Assays:
[1] = Zeta-potential measurement; type: physicochemical; parameters: Zeta-Potential: unit not given here; settings: for Zeta-Potential / mV: mean, Figure 7B
Experimental: (§1) 4 µL of 1 mg/mL peptide fibrils solution is added to a 20 µL, 50 µM ThT–solution in PBS. The mixture is incubated for 15 min at RT to allow binding of ThT dye with β–sheet rich structures. For reference PBS (4 µL) was added instead of peptide fibril solution. The samples were placed in black UV Star® 384 microliter well–plates (Greiner bio–one). Fluorescence spectra were recorded on an Infinite® M1000 PRO microplate reader (Tecan) at λem = 488 nm upon excitation at λex = 440 nm with 10 nm bandwidths and multiple reads per well (3×3). Measurements were repeated in triplicates and averaged with standard deviation. […] Zeta-Potential. For the determination of the surface charge of aggregated peptides zeta-potential measurements were conducted with a Zetasizer Nano ZS, Malvern Instruments. Unless stated otherwise the peptides were dissolved from DMSO (10 mg/mL) in PBS (pH 7.4) to concentration of 1 mg/mL and incubated for 1d at RT. Just before the measurement the 60 µL of the peptides were further diluted in 600 µL KCl (aq, 1 mM) in a 1 mL disposable folded capillary cells (DTS–1060, Zetasizer Nano series, Malvern). The zeta potential of the peptides was derived from the electrophoretic mobility based on the Smoluchowski formula. All measurements were averaged over two individually performed experiments and conducted in triplicates for each sample. Aggregate analysis. […] Furthermore, fluorescence microscopy was conducted by staining 1 µL preformed fibrils (1 mg/mL) with 9 µL ThT (50 µM). Brightfield microscopy was performed simultaneously to evaluate aggregation also for non ThT-active fibrils. The measurements were performed on a Leica DMi8 microscope with 10x air objective and equipped with a Leica MC170 HD camera with a filter setting λem = 527/30 nm upon excitation at λex = 480/40 nm) and processed with the Leica LASX software. To quantify size and number of microscopic aggregation of particles > 10 µm^2 at least 3 independently measured images were analyzed via the 3D object counter analysis tool of ImageJ, v 1.53f51. Sum–frequency generation. The SFG experiments were carried out with a femtosecond Ti: Sapphire amplified laser system (Spitfire Ace, Spectra–Physics, 800 nm, 40 fs, 1 kHz) with 5 W output power. We used 2 W to pump an optical parametric amplifier (TOPAS, light conversion) with a non–collinear difference frequency generation stage to generate broadband IR pulses. Another 1 W of the laser output passed through an etalon to generate narrowband visible pulses (10 cm^-1). The incident angles of the visible and IR beams were 36° and 41° with respect to the surface normal, respectively. The visible (13 µJ) and IR (5 µJ) pulses were overlapped spatially and temporally at the sample position. Subsequently, the generated SFG pulse was guided into a spectrograph (Acton SP 300i, Princeton Instruments), and detected with an EMCCD (Newton, Andor Technology). To avoid IR absorption of water vapor, we purged N2 for the measurement. All spectra were collected in the ssp (denoting s-, s- and p-polarized SFG, visible and IR, respectively) polarization combination. The spectra were normalized to the non–resonant signal taken from z–cut quartz after subtracting a background spectrum. […]

[2] = system: HIV-1 infection of TZM-bl cells; assay: HIV-1 infectivity enhancement assay, β-galactosidase luminescence; type: cell-based; settings: for Log10 Infection Rel EF-C: log10 of infection relative to EF-C, Figure 7B; for Inf. rel. EF-C: n-fold infection vs virus only, relative to that of EF-C, 1.3 µM peptide; for Abs Infection at 0.26µM: peptide 0.26 µM; for Abs Infection at 0.26µM / Abs Infection at 1.3 µM / Abs Infection at 6.5 µM: mean of n = 3, Figure 7A; for Abs Infection at 1.3 µM: peptide 1.3 µM; for Abs Infection at 6.5 µM: peptide 6.5 µM
TZM-bl cells = type: cell-based; settings: CellTiter-Glo, mean of n = 3 replicates; for viability 0.26 µM: peptide 0.26 µM; for viability 1.3 µM: peptide 1.3 µM; for viability 6.5 µM: peptide 6.5 µM
Experimental: The cell viability after addition of peptides to TZM–bl cells was studied via the CellTiter–Glo assay. To this end, 10,000 cells were seeded and on the next day serial diluted peptides were added. After 3 days the supernatant was removed and 100 µL CellTiter–Glo Reagent 1:1 diluted in PBS was added. After 10 min 50 µL was transferred to white microplate and luminescence was recorded by Orion microplate luminometer.
2. Cell Viability of Representatively Selected Peptides
Figure S 2 Cell Viability normalized to 100% metabolic activity as determined by CellTiterGlo Assay of 57 representatively selected peptides from the library. The selection represents infectivity enhancing and not […]
concentration. Error bars indicate standard deviation from triplicate measurements. Source data for Figure S2 […]
Figure S3 Cell Viability normalized to 100% metabolic activity determined by CellTiterGlo Assay of 20 peptides reported in literature. 33,34,43–48,35–42 Cell viability (> 80%) is maintained for all peptides at 1.3 µM concentration regardless of the preparation method, which is A PNF formation method by dilution of 10 mg/mL peptide stock in DMSO in PBS to 1 mg/mL or B preparation according to literature reported protocol (SI Section 8). Error bars indicate standard deviation from triplicate measurements. Source data for Figure S3 is provided.

[3] = Turbidity, derived count rate of scattered light; type: physicochemical; settings: for Count Rate / kcps: derived count rate of scattered light at 633 nm, 173°, from zeta-potential measurement, 0.1 mg/mL in 1 mM KCl after 1 d at 1 mg/mL in PBS, turbidity / microscopic aggregation, mean of triplicate; for Count Rate: derived count rate of scattered light
Experimental: as §1
ways to determine turbidity of samples, this can be via transmittance and via scattering. Transmittance […]
as it is an easy and fast method.10,11 However, transmittance contributes not only from µm-sized aggregates but also nm-sized aggregates such as distinct fibrils, which makes hard to distinguish between fibril formation and micrometer sized aggregation. Although dynamic light scattering is a frequently applied method for determination of particle size, it cannot be conducted in solutions with anisotropic aggregates in micrometer size range, since the Stokes-Einstein relation is only applicable for homogeneous […] spherical particles.12 Further models describing scattering intensity and […]

[4] = Turbidity, derived count rate of scattered light; type: physicochemical; settings: log10 of derived count rate of scattered light, Figure 7B
[5] = type: physicochemical; parameters: key to Fibril / Fibril Formation / TEM 2cat / Fibril: 1 = fibrils present; 0 non-fibrillar structures; settings: TEM, 1 mg/mL, uranyl acetate stain, qualitative
Experimental: For ATR FT–IR spectroscopy measurements, 200 µL of the respective 1 mg/mL PNF solution was lyophilized and the resulting powder used for measurement. All spectra were recorded on a Bruker Tensor 27 spectrometer with a diamond crystal as ATR element (PIKE MiracleTM, spectral resolution 2 cm^-1). Every sample was measured with 64 scans. Data were analyzed with OriginLab software and calculation of β–sheet content was conducted according to a previous report. TEM. For TEM measurements 5 µL of PNF fibrils (1 mg/mL) were placed on copper grids coated with carbon and formvar layer (300 mesh, Plano GmbH). After 10 min incubation time, the grids were staining with 4% uranyl acetate solution for 2.5 min and washed with water. Measurements were performed on a Jeol 1400 electron microscope with 120 kV acceleration voltage. CR Assay. For the determination of the amount of peptide monomer converting into nanostructures the amine reactive dye fluorescamine was used analogous to a previous reported protocol. Briefly, 100 µL of the preformed PNF solution was centrifuged in a Vivaspin 500 tube (3 kDa MWCO) to separate fibers from free peptide monomer (16200 x g, 4 °C, 45 min). The filtrate and 100 μL of the non-filtered PNF sample were lyophilized and dissolved in 30 μL DMSO. 10 μL of the filtrate and non-filtered DMSO samples were submitted in a black UV Star® 384 microliter well–plates (Greiner bio–one) and 3 μL of the fluorescamine solution (10 mg/mL, DMSO) was added to measure the fluorescence enhancement. After 20 min of incubation at RT, fluorescence was recorded on an Infinite® M1000 PRO microplate reader (Tecan) at λem = 470 nm upon excitation at λex = 365 nm with 10 nm bandwidths and multiple reads per well (3×3). Measurements were repeated in triplicates and averaged with standard deviation. All values were calculated as n-fold fluorescence enhancement (DMSO only as a reference was set to 1). The conversion rate CR was defined according to the equation Eq. (3).3 CR=100−100×fluorescenceintensityfiltrate/fluorescenceintensityoriginal[%]
(§2) 1. Remarks on experimental parameters and bioinformatic descriptors
1.1 Experimental parameters
Transmission electron microscopy (TEM) measurements. TEM measurements were used to control if peptides assemble. The assemblies were categorized in non -fibrillar structures (no assembly, […]
grid but only amorphous aggregates. In contrast, peptides defined as fibrillar may also include amorphous structures. Amongst nonfibrillar assemblies also amorphous aggregates are summarized.
Amorphous aggregates are defined as structures with high β-sheet content which lack long-range order, that is crystallinity or fibril formation. It is generally assumed that these structures might be

[6] = type: physicochemical; settings: ThT-active if fluorescence at least twice the control
Experimental: 4 µL of 1 mg/mL peptide fibrils solution is added to a 20 µL, 50 µM ThT–solution in PBS. The mixture is incubated for 15 min at RT to allow binding of ThT dye with β–sheet rich structures. For reference PBS (4 µL) was added instead of peptide fibril solution. The samples were placed in black UV Star® 384 microliter well–plates (Greiner bio–one). Fluorescence spectra were recorded on an Infinite® M1000 PRO microplate reader (Tecan) at λem = 488 nm upon excitation at λex = 440 nm with 10 nm bandwidths and multiple reads per well (3×3). Measurements were repeated in triplicates and averaged with standard deviation. […] Zeta-Potential. For the determination of the surface charge of aggregated peptides zeta-potential measurements were conducted with a Zetasizer Nano ZS, Malvern Instruments. Unless stated otherwise the peptides were dissolved from DMSO (10 mg/mL) in PBS (pH 7.4) to concentration of 1 mg/mL and incubated for 1d at RT. Just before the measurement the 60 µL of the peptides were further diluted in 600 µL KCl (aq, 1 mM) in a 1 mL disposable folded capillary cells (DTS–1060, Zetasizer Nano series, Malvern). The zeta potential of the peptides was derived from the electrophoretic mobility based on the Smoluchowski formula. All measurements were averaged over two individually performed experiments and conducted in triplicates for each sample. Aggregate analysis. […] Furthermore, fluorescence microscopy was conducted by staining 1 µL preformed fibrils (1 mg/mL) with 9 µL ThT (50 µM). Brightfield microscopy was performed simultaneously to evaluate aggregation also for non ThT-active fibrils. The measurements were performed on a Leica DMi8 microscope with 10x air objective and equipped with a Leica MC170 HD camera with a filter setting λem = 527/30 nm upon excitation at λex = 480/40 nm) and processed with the Leica LASX software. To quantify size and number of microscopic aggregation of particles > 10 µm^2 at least 3 independently measured images were analyzed via the 3D object counter analysis tool of ImageJ, v 1.53f51. Sum–frequency generation. The SFG experiments were carried out with a femtosecond Ti: Sapphire amplified laser system (Spitfire Ace, Spectra–Physics, 800 nm, 40 fs, 1 kHz) with 5 W output power. We used 2 W to pump an optical parametric amplifier (TOPAS, light conversion) with a non–collinear difference frequency generation stage to generate broadband IR pulses. Another 1 W of the laser output passed through an etalon to generate narrowband visible pulses (10 cm^-1). The incident angles of the visible and IR beams were 36° and 41° with respect to the surface normal, respectively. The visible (13 µJ) and IR (5 µJ) pulses were overlapped spatially and temporally at the sample position. Subsequently, the generated SFG pulse was guided into a spectrograph (Acton SP 300i, Princeton Instruments), and detected with an EMCCD (Newton, Andor Technology). To avoid IR absorption of water vapor, we purged N2 for the measurement. All spectra were collected in the ssp (denoting s-, s- and p-polarized SFG, visible and IR, respectively) polarization combination. The spectra were normalized to the non–resonant signal taken from z–cut quartz after subtracting a background spectrum.
as §2

Substance	viability 0.26 µM (TZM-bl cells)	viability 1.3 µM (TZM-bl cells)	viability 6.5 µM (TZM-bl cells)	Zeta-Potential / mV [1] [mV]	Count Rate / kcps [3] [kcps]	Log10 Count Rate [4]	Log10 Infection Rel EF-C [2]	Inf. rel. EF-C [2]	Abs Infection at 0.26µM [2]	Abs Infection at 1.3 µM [2]	Abs Infection at 6.5 µM [2]	also measured
CKIW [TM81]	106.2	107.1	100.6									Zeta-pot. / mV ([1]; zeta potential of peptide, Fig S15 source data): -3.71 mV; infectivity ([2]; infectivity class (low / medium / high) of the peptide in the sequence-pattern analysis, Fig. S22-A4, class limits not given): low; Log10 Inf. rel. to EF-C ([2]; log10 of HIV-1 infection of TZM-bl cells relative to EF-C, Fig S15 source data, asymmetric std dev errors): -1.286
ISKLEYSNFSVRY [reference compound]				9.33	7807	3.893	-0.26	0.54	23820	58613.33333	157450	Zeta pot. / mV ([1]; 1 mg/mL in PBS pH 7.4 from 10 mg/mL DMSO stock, 1 d RT, 60 µL diluted in 600 µL 1 mM KCl, Zetasizer Nano ZS, Smoluchowski, mean of triplicate): 9.3 mV; Fibril / Fibril Formation [5]: 1
LANWMCLAKW [reference compound]				14.73	15062	4.178	-0.4	0.40	44873.33333	80126.66667	133423.3333	Zeta Potential ([1]; mean of n = 3): 14.73; Zeta-Potential ([1]; replicate 1): 14.5; Zeta-Potential ([1]; replicate 2): 14.6; Zeta-Potential ([1]; replicate 3): 15.1; Count Rate ([3]; mean of n = 3): 15061.73333 kcps; Count Rate ([3]; replicate 1): 20482.8 kcps; Count Rate ([3]; replicate 2): 10116.2 kcps; Count Rate ([3]; replicate 3): 14586.2 kcps; ThT Cat. / ThT-Fluorescence (categorical) [6]: 1 (ThT. Cat is 1, if Rel. ThT >2)
QCKIKQIINMWQ [EF-C (Münch Stock)]	102	94.89	78.3									
